From ChEMBL document CHEMBL1909046, “DrugMatrix in vitro pharmacology data” come the findings set out here.

pIC50: −log10 of the molar value.

Data set [1] deals with T1, Muscarinic acetylcholine receptor M5 (Homo sapiens, UniProt P08912).
T1 sequence (P08912 whole entry): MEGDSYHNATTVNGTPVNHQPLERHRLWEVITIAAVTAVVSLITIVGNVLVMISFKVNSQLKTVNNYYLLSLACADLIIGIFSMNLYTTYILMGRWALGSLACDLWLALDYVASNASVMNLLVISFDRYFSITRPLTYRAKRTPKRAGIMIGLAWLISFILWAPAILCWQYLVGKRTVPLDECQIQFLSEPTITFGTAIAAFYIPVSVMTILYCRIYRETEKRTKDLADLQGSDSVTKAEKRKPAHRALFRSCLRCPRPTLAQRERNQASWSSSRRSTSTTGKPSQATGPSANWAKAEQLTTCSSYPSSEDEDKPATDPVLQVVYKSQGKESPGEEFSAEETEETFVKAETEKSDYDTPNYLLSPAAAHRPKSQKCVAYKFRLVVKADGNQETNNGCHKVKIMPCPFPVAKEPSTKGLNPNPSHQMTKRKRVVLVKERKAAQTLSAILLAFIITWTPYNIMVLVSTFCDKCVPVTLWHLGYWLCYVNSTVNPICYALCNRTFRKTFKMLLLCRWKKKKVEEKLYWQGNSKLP
It is filed as cell membranes, Membrane. To be noted: cho-k1.

Another data set deals with Acetylcholinesterase (Homo sapiens, UniProt P22303). Put plainly: DRUGMATRIX: Acetylcholinesterase enzyme inhibition (substrate: acetylthiocholine). Format: cell-based, HEK293. To be noted: Not Active = under 50% inhibition at 10 µM; for IC50: hek293.
Chain of Acetylcholinesterase (P22303 whole entry): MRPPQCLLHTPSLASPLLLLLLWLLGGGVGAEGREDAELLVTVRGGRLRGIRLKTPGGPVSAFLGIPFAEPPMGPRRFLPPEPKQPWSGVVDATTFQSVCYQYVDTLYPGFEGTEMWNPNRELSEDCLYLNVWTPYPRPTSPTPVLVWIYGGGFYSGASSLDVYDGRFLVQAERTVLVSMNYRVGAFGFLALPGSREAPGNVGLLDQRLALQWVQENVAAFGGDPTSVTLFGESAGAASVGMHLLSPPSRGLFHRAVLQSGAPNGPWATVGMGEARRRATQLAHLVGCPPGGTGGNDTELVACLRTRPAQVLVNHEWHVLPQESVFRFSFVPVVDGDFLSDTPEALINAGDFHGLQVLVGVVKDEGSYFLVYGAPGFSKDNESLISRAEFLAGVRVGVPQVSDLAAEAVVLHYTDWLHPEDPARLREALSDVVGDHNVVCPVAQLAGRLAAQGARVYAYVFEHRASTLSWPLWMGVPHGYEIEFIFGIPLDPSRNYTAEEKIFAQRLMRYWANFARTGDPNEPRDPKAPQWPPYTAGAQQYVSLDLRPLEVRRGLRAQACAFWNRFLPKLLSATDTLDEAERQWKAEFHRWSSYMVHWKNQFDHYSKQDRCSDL
Data set [2] is described as follows: DRUGMATRIX: Purinergic P2X radioligand binding (ligand: [3H] alpha, beta-Methylene-ATP). Format: cell membranes, Oryctolagus cuniculus, New Zealand albino, Urinary bladder, Membrane. To be noted: Not Active = under 50% inhibition at 10 µM.
The target in data set [3] is T2, Nitric oxide synthase, inducible (Mus musculus, UniProt P29477).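 Note: inhibition of iNOS enzyme activity measured with L-arginine as substrate; in other assays of this panel Not Active means under 50% inhibition at 10 µM.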
T2 sequence (P29477 whole entry): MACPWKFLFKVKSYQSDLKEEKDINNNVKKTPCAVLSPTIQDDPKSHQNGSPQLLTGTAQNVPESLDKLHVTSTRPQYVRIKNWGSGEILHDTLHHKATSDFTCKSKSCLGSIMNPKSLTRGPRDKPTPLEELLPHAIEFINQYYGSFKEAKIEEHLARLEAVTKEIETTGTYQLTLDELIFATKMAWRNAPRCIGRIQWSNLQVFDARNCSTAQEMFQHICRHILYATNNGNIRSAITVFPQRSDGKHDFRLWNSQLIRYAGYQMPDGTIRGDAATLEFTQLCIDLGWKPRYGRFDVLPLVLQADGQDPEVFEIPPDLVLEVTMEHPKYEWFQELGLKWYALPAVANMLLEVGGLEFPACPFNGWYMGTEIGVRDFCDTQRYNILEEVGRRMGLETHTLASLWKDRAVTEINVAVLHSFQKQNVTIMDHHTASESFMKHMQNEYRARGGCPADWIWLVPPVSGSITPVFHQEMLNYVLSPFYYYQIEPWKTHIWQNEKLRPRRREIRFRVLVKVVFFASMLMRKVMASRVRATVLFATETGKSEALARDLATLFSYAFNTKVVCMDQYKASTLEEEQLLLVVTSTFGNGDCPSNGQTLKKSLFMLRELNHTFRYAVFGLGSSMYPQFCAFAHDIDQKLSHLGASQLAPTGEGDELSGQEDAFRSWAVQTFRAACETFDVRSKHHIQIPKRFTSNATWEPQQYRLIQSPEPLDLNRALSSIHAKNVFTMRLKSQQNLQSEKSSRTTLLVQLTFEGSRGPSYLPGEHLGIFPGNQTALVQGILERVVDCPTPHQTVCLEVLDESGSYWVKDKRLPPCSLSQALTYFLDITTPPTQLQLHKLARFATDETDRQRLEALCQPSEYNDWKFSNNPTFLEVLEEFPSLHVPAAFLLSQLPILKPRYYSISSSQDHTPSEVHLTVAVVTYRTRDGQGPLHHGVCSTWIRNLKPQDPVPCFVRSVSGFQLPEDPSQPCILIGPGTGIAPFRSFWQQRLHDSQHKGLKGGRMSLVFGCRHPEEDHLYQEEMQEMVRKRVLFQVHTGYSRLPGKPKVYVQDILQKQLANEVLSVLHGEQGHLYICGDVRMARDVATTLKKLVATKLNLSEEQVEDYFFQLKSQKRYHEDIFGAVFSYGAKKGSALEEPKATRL
On the set-up: species or system Escherichia coli.

The nature of data set [4]: DRUGMATRIX: GABAA, Muscimol, Central radioligand binding (ligand: [3H] Muscimol). It is filed as cell membranes, Rattus norvegicus, Wistar, Brain, Membrane. To be noted: Not Active = under 50% inhibition at 10 µM.
A short description of data set [5]: DRUGMATRIX: Serotonin (5-Hydroxytryptamine) 5-HT3 radioligand binding (ligand: [3H] GR-65630). It is filed as cell membranes, Membrane. To be noted: hek293; Not Active = under 50% inhibition at 10 µM.
A further data set addresses T3, Cytochrome P450 1A2 (Homo sapiens, UniProt P05177).
T3 sequence (P05177 whole entry): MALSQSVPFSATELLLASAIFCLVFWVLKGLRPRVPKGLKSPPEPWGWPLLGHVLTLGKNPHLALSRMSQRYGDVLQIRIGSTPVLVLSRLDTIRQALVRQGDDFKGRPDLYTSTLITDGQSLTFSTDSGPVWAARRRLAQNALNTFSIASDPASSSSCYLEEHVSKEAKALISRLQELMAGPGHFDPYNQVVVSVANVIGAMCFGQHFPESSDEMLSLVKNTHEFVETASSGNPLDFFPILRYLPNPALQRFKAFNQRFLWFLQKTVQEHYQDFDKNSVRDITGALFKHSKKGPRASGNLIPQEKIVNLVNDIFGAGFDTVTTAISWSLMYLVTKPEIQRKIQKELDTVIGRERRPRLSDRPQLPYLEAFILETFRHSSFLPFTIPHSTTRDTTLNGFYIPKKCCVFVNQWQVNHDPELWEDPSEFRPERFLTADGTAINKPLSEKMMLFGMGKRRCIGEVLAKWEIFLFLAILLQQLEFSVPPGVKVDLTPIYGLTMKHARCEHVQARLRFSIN
To be noted: bti-tn-5b1-4.

Another data set deals with T4, B2 bradykinin receptor (Homo sapiens, UniProt P30411).
T4 sequence (P30411 whole entry): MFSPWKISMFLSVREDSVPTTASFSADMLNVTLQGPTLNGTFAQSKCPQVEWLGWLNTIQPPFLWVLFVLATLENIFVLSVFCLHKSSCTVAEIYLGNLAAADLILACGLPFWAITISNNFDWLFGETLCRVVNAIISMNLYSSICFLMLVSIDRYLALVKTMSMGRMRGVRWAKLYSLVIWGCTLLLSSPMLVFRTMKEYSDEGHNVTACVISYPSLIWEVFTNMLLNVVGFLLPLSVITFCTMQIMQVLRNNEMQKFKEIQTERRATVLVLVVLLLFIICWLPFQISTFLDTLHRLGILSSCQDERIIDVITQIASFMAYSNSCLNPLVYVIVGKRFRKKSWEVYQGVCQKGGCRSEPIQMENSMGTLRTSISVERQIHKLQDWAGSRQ
It is filed as cell membranes, Membrane. To be noted: chem-1.

As to `Cc1cccc(Nc2ccccc2C(=O)O)c1C` [MEFENAMIC ACID], the IC50 result (in data set [1]; against Acetylcholinesterase; in data set [2]; in data set [3]; in data set [4]; in data set [5]) was “Not Active” throughout. In addition, the IC50 entry against Cytochrome P450 1A2 and against B2 bradykinin receptor was “Not Active” throughout. For the same compound, the Ki result (in data set [2]; in data set [4]; in data set [5]; at Cytochrome P450 1A2) was “Not Active” throughout.
As to `CC(=O)O[C@]1(C(C)=O)CC[C@H]2[C@@H]3C=C(C)C4=CC(=O)CC[C@]4(C)[C@H]3CC[C@@]21C` [MEGESTROL ACETATE], the IC50 result (in data set [1]; against Acetylcholinesterase; in data set [2]; in data set [3]; in data set [4]; in data set [5]) was “Not Active” throughout. Also, the IC50 entry against Cytochrome P450 1A2 and against B2 bradykinin receptor was “Not Active” in each case. Also, the Ki entry (in data set [2]; in data set [4]; in data set [5]; on Cytochrome P450 1A2) was “Not Active” each time.
In the case of `COc1ccccc1OCC(O)COC(N)=O` (stereo not given) [METHOCARBAMOL], the IC50 entry (in data set [1]; against Acetylcholinesterase; in data set [2]; in data set [3]; in data set [4]; in data set [5]) was “Not Active” each time. Besides, the IC50 result against Cytochrome P450 1A2 and against B2 bradykinin receptor was “Not Active” each time. Moreover, the Ki entry (in data set [2]; in data set [4]; in data set [5]; at Cytochrome P450 1A2) was “Not Active” in each case.
On to `CN(Cc1cnc2nc(N)nc(N)c2n1)c1ccc(C(=O)N[C@@H](CCC(=O)O)C(=O)O)cc1` [METHOTREXATE], for which the IC50 result (in data set [1]; against Acetylcholinesterase; in data set [2]; in data set [3]; in data set [4]; in data set [5]) was “Not Active” throughout. Further, the IC50 result against Cytochrome P450 1A2 and against B2 bradykinin receptor was “Not Active” in each case. In addition, the Ki entry (in data set [2]; in data set [4]; in data set [5]; on Cytochrome P450 1A2) was “Not Active” each time.
For the compound `COC(=O)c1ccccc1O` [METHYL SALICYLATE], the IC50 entry (in data set [1]; at Acetylcholinesterase; in data set [2]; in data set [3]; in data set [4]; in data set [5]) was “Not Active” throughout. Besides, the IC50 entry against Cytochrome P450 1A2 and against B2 bradykinin receptor was “Not Active” each time. Further, the Ki result (in data set [2]; in data set [4]; in data set [5]; at Cytochrome P450 1A2) was “Not Active” each time.
Take `O=C(O)c1cccnc1` [NIACIN]: the IC50 result (in data set [1]; against Acetylcholinesterase; in data set [2]; in data set [3]; in data set [4]; in data set [5]) was “Not Active” throughout. For the same compound, the IC50 entry at Cytochrome P450 1A2 and on B2 bradykinin receptor was “Not Active” in each case. Besides, the Ki entry (in data set [2]; in data set [4]; in data set [5]; at Cytochrome P450 1A2) was “Not Active” in each case.
A word on the pIC50: it is the IC50 on a negative log10 scale, so that one unit is a factor of ten. Take `CNC(=C[N+](=O)[O-])NCCSCc1csc(CN(C)C)n1` [NIZATIDINE]: the IC50 entry (in data set [1]; in data set [2]; in data set [3]; in data set [4]; in data set [5]; on Cytochrome P450 1A2) was “Not Active” in each case. Also, the IC50 result at B2 bradykinin receptor was “Not Active”. Also, the pIC50 at Acetylcholinesterase (read-out: IC50) is 5.25. Also, the Ki entry (in data set [2]; in data set [4]; in data set [5]; at Cytochrome P450 1A2) was “Not Active” each time.
Regarding `C[C@]12C/C(=C/O)C(=O)C[C@@H]1CC[C@@H]1[C@@H]2CC[C@@]2(C)[C@H]1CC[C@]2(C)O` [OXYMETHOLONE], the IC50 entry (in data set [1]; against Acetylcholinesterase; in data set [2]; in data set [3]; in data set [4]; in data set [5]) was “Not Active” throughout. In addition, the IC50 result against Cytochrome P450 1A2 and against B2 bradykinin receptor was “Not Active” each time. Besides, the Ki entry (in data set [2]; in data set [4]; in data set [5]; on Cytochrome P450 1A2) was “Not Active” each time.
Consider `CC(C)(CO)C(O)C(=O)NCCCO` (stereo not given) [PANTHENOL], for which the IC50 entry (in data set [1]; against Acetylcholinesterase; in data set [2]; in data set [3]; in data set [4]; in data set [5]) was “Not Active” in each case. Further, the IC50 entry against Cytochrome P450 1A2 and against B2 bradykinin receptor was “Not Active” in each case. The Ki entry (in data set [2]; in data set [4]; in data set [5]; on Cytochrome P450 1A2) was “Not Active” in each case.
Regarding `COc1ccc(Cc2nccc3cc(OC)c(OC)cc23)cc1OC` [PAPAVERINE], the IC50 entry (in data set [1]; against Acetylcholinesterase; in data set [2]; in data set [3]; in data set [4]; in data set [5]) was “Not Active” each time. For the same compound, the IC50 result against Cytochrome P450 1A2 and against B2 bradykinin receptor was “Not Active” each time. Besides, the Ki entry (in data set [2]; in data set [4]; in data set [5]; on Cytochrome P450 1A2) was “Not Active” each time.
